According to publication PMC11513923, “Discovery of ZLC491 as a Potent, Selective, and Orally Bioavailable CDK12/13 PROTAC Degrader” (Journal of Medicinal Chemistry, 2024):
“Also recorded” adds a separate entry of the source. Like-named read-outs stand apart in the source and are kept apart here.

Legend:
[1] = set-up: method as in doi:10.1200/JCO.2020.38.15_suppl.3500, PMID 26200936; settings: cited from earlier work
[2] = system: MDA-MB-231 cells; assay: Drug combination assay with ZLC491; assay type: cell-based, human
Procedure: (A) Transcription level of DDR genes in MDA-MB-231 cells determined by RT-qPCR upon the treatment with vehicle or ZLC491 at different doses for 12 h, ROR1 was used as a negative control; (B) immunoblotting of DDR proteins in MDA-MB-231 cells after the treatment of ZLC491 at different doses for 48 h; (C) cell antiproliferative activity of ZLC491 in multiple TNBC cells as well as several noncancerous cells. Cells were treated with the compound for 5 days; (D,E) antiproliferative potency of cisplatin or olaparib alone or combined with ZLC491 at different doses in MDA-MB-231 cells for 5 days. Data are plotted using the percentage of absorbance relative to DMSO controls. (F) IC50 values and combination index (CI) in drug combination assay. In this model, CI scores estimate the interaction between the two drugs. If CI < 1, the drugs have a synergistic effect and if CI > 1, the drugs have an antagonistic effect. CI = 1 means the drugs have an additive effect. ^aThe drug combination in the table refers to the starting concentration of the two combined drugs, that would both go through serial dilution when treating cells.
Tested cells were plated in 96-well or 384-well plates and incubated at 37 °C with or without 5% CO2. […] Cell proliferation was measured 5 days after compound treatment using Cell Counting Kit-8 (Selleck) according to the manufacturer’s instructions. […]

[3] = system: TNBC cells and noncancerous cells; assay: Cell proliferation assay of the negative control in multiple TNBC and noncancerous cells; assay type: cell-based, human; settings: multiple TNBC and noncancerous cell lines, 5 days
Procedure: The antiproliferative effects of ZLC491 against TNBC cells were also evaluated. […] We thus investigated the synergistic effects of ZLC491 with DNA cross-linker cisplatin.
Tested cells were plated in 96-well or 384-well plates and incubated at 37 °C with or without 5% CO2. After overnight incubation, serial dilutions of compounds were added to the plate. Cell proliferation was measured 5 days after compound treatment using Cell Counting Kit-8 (Selleck) according to the manufacturer’s instructions.
Figure S3. Immunoblotting of CCNK in MDA-MB-231 cells treated with increasing concentrations of ZLC491 for 15 h.
Figure S4. Cell antiproliferative activity of ZLC491N in multiple TNBC cells as well as noncancerous cells. Cells were treated with the compound for 5 days. […]

[4] = system: CDK12/13; assay: Immunoblotting of CDK12/13 in MDA-MB-231 cells (time course, negative control, series comparison); assay type: cell-based, human; settings: 1 μM, 10 h
Procedure: (§1) To further characterize the compound, we determined the half-degradation concentration (DC50) values of ZLC491 in MDA-MB-231 cells. […] We also treated MDA-MB-231 cells with 1 μM ZLC491 at various time points.
(§2) (A) Immunoblotting of CDK12 and CDK13 in MDA-MB-231 cells treated with increasing concentrations of ZLC491 for 15 h (left). Percent remaining CDK12 and CDK13 proteins were plotted for DC50 determination (right). Protein levels were quantified using ImageJ and normalized to corresponding α-tubulin, then plotted using Graphpad Prism 8.0. The data were representative of three independent experiments; (B) immunoblotting of CDK12 and CDK13 proteins in MDA-MB-231 cells treated with ZLC491 for various time points; immunoblotting of CDK12 and CDK13 in HCC38 (C) and MDA-MB-436 (D) cells treated with increasing concentrations of ZLC491 for 15 h. α-Tubulin was used as a loading control. TEXT PRINTED IN THE PICTURE: (A) ZLC491: MDA-MB-231: CDK12 DC50 = 0.032μM; MDA-MB-231: CDK13 DC50 = 0.028μM DOUBTS OF THE COPYIST ABOUT THIS PICTURE: ZLC491, CDK12 DC50: 0.032 read from small print, the digits 3 and 2 are uncertain / ZLC491, CDK13 DC50: 0.028 read from small print, the last digit may be 8, 6 or 3
Figure 4 ZLC491 induced CDK12/13 degradation in a CRBN- and proteasome-dependent fashion. […]

[5] = molecular target: T1, CDK13 (Homo sapiens, UniProt Q14004); assay: CDK13 degradation in MDA-MB-231 cells by immunoblotting; assay type: cell-based; settings: MDA-MB-231 cells, 0.3 μM, 15 h, immunoblotting, normalized against α-tubulin;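 note: percent of CDK13 protein degraded relative to DMSO control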
T1 construct: Immunoblotting of CDK12 and CDK13 in MDA-MB-231 cells treated with increasing concentrations of ZLC491 for 15 h; endogenous in cells; host or cells: MDA-MB-231
Procedure: (§3) The degradation efficiency of the new molecules was assessed by immunoblotting after treatment with the compounds at 0.3 μM in MD-MBA-231 cells for 15 h.
as §1, §2
(§4) Generally, the tested cells were washed by ice-cold PBS buffer (Gibco) and lysed with an SDS lysis buffer (62.5 mM Tris, 2% w/v SDS, 10 glycerol, 50 mM DTT, 0.01% w/v bromophenol blue) on ice, after which the protein lysate samples were collected to 1.5 mL microcentrifuge tubes and treated with ultrasonic for 10 s, following with a 100 °C incubation for 10 min and a 4 °C centrifugation of 12000 rpm for 10 min. An equal amount of protein was loaded to 4–8% Bis-Tris gels and underwent an SDS-PAGE electrophoresis at 55V for 30 min and 95V for 90 min. Proteins on gels were then transferred to a polyvinylidene difluoride (PVDF) membrane (Bio-Rad) with a wet electro transfer system (Bio-Rad). The PVDF membrane was cut into bands and incubated in a blocking reagent (5% defatted milk powder dissolved in TBST) at room temperature for 1–2 h. Incubate membrane and primary antibody (at the appropriate dilution and diluent as recommended in the product webpage) at 4 °C for 12–14 h, followed with three times washes by TBST. The washed membranes were incubated in a secondary antibody solution (HRP-linked antirabbit IgG or antimouse IgG (CST), 1:2000 diluted into TBST) at room temperature for 2 h. Membranes were photographed in Amersham Imager 800 system using StarSignal plus regent (GenStar) or Omni-ECL reagent (EpiZyme). Compounds MG132, MLN4924, Bafilomycin A1 and pomalidomide were purchased from MedChemExpress (MCE) LLC.

[6] = molecular target: CDK12 (Homo sapiens, UniProt Q9NYV4); assay: CDK12 degradation in MDA-MB-231 cells by immunoblotting; assay type: cell-based; set-up: Immunoblotting of CDK12 and CDK13 in MDA-MB-231 cells treated with increasing concentrations of ZLC491 for 15 h; endogenous in cells; host or cells: MDA-MB-231; settings: MDA-MB-231 cells, 0.3 μM, 15 h, immunoblotting, normalized against α-tubulin
Procedure: as §3, §1, §2, §4

[7] = set-up: method as in PMID 35938508; settings: rats; cited from earlier work

T1 sequence (Q14004 whole entry): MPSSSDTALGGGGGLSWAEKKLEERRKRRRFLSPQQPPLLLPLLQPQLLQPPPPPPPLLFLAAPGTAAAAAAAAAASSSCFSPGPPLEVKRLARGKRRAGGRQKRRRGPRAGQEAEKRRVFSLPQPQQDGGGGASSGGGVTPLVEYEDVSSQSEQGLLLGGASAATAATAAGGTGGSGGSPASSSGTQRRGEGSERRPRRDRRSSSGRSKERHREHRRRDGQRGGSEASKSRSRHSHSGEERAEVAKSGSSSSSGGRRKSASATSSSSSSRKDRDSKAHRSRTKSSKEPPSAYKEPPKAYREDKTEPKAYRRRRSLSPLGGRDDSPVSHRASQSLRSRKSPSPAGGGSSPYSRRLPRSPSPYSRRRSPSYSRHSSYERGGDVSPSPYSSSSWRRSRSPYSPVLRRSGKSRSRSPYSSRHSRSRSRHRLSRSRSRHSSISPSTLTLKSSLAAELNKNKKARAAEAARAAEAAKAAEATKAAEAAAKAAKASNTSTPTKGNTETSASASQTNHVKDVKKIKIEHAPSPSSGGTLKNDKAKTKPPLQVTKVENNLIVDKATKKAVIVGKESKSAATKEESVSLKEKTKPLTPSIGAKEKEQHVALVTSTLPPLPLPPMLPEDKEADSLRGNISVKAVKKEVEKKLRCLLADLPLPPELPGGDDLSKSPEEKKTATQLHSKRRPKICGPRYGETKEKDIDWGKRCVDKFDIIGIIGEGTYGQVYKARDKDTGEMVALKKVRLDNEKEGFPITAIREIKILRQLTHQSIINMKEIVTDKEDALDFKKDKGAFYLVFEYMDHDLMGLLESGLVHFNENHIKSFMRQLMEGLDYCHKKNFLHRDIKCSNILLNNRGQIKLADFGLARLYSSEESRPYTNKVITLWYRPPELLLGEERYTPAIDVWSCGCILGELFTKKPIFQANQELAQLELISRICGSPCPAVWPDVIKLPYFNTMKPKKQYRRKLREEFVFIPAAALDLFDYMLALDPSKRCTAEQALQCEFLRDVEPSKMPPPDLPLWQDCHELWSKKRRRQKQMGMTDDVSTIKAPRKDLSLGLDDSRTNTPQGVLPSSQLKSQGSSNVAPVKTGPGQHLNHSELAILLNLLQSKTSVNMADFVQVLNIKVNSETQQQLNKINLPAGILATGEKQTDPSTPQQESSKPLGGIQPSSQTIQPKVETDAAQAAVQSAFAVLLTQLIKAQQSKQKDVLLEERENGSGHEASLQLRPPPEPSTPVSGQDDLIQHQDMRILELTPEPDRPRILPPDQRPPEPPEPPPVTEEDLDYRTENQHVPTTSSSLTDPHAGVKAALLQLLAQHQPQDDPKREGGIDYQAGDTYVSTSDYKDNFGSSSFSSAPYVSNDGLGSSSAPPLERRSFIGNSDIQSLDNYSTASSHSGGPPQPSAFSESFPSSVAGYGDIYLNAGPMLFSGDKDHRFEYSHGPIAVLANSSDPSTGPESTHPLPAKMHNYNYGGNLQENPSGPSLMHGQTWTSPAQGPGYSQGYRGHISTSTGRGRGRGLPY
T1 sequence (O75909 whole entry partner): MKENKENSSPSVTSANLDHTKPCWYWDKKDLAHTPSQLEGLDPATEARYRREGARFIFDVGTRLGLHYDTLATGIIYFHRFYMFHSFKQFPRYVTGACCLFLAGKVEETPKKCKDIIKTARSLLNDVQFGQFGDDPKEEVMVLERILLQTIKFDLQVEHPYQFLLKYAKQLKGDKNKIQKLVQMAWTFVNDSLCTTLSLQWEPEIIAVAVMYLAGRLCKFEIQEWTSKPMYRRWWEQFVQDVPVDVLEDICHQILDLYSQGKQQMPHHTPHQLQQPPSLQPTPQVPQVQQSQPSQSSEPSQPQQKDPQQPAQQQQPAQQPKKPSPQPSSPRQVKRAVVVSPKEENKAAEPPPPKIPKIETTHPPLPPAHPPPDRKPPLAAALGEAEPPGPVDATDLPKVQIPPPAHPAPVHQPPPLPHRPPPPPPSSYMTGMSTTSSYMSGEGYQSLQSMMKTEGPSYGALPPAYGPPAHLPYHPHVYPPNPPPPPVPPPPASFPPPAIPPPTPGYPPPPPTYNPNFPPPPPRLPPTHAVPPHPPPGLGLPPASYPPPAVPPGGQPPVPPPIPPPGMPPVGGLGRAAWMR
CDK12, sequence (Q9NYV4 whole entry): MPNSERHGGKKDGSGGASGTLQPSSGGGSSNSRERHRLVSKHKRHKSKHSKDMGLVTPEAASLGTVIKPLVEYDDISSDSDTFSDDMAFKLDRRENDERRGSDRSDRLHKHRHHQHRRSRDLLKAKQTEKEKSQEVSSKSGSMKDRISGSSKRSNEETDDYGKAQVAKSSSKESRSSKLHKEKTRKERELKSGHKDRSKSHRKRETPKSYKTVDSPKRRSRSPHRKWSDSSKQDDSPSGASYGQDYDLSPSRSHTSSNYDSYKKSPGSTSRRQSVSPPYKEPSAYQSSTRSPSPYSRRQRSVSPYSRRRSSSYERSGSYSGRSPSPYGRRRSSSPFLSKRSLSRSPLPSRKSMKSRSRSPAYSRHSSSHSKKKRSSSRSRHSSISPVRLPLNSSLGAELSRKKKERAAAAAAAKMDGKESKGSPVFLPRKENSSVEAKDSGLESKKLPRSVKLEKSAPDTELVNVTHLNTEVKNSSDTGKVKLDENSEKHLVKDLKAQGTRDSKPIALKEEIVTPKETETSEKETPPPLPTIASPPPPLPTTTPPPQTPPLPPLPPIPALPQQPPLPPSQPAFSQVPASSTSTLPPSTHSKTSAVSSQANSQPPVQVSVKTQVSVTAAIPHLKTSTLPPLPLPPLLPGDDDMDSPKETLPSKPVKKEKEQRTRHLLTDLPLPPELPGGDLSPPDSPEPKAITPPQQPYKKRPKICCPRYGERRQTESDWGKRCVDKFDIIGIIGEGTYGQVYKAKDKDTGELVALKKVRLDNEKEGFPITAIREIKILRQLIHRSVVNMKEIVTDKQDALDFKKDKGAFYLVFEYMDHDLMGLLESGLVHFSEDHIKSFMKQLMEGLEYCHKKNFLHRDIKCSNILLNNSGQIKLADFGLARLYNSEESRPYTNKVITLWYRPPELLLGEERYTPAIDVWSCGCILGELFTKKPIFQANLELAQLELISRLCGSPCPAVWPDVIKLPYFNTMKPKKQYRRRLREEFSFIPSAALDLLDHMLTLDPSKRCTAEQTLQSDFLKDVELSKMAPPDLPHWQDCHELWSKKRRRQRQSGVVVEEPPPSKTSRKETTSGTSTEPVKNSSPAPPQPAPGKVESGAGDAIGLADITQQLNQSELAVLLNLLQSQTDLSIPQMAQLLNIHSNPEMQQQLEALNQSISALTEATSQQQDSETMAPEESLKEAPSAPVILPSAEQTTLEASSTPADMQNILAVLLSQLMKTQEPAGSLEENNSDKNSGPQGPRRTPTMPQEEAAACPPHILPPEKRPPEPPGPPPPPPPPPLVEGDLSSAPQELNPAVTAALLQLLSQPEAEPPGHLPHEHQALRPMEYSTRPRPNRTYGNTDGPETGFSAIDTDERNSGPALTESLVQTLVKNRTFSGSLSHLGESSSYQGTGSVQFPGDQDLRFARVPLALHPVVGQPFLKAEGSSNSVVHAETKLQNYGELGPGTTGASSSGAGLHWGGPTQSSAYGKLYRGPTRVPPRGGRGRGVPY
CDK12, sequence (O75909 whole entry partner): as the sequence (O75909 whole entry partner) above

For `N#Cc1ccc(O[C@H]2CC[C@H](NC(=O)c3ccc(N4CCC(CN5CCN(c6cc7c(cc6F)C(=O)N(C6CCC(=O)NC6=O)C7=O)CC5)CC4)nn3)CC2)cc1Cl` (stereo partly drawn) [ARV-110], the oral bioavailability [1] is listed as “good oral bioavailability”.

With `N.N.[Cl][Pt][Cl]` [Cisplatin, cisplatin] the “interaction with ZLC491 in dose–response assays” value ([2]; MDA-MB-231 cells, 5 days) was “potent synergy”.

With `O=C(c1cc(Cc2n[nH]c(=O)c3ccccc23)ccc1F)N1CCN(C(=O)C2CC2)CC1` [Olaparib, olaparib] the IC50 ([2]; Homo sapiens, 120 h, drug A alone, starting concentration 25 μM, MDA-MB-231, 5 days, read-out: IC50 (μM), Drug A: ZLC491 25μM: 0μM) was 7.24 µM.

With `CN1C(=O)CCC(N2C(=O)c3cc(F)c(N4CCC(N5CCN(c6ccc(N(C(=O)NCc7ccccc7)[C@H]7CC[C@H](Nc8ccc(C#N)cn8)CC7)cc6)CC5)CC4)cc3C2=O)C1=O` (stereo partly drawn) [ZLC491N, 3-Benzyl-1-((1r,4r)-4-((5-cyanopyridin-2-yl)amino)cyclohexyl)-1-(4-(4-(1-(6-fluoro-2-(1-methyl-2,6-dioxopiperidin-3-yl)-1,3-dioxoisoindolin-5-yl)piperidin-4-yl)piperazin-1-yl)phenyl)urea] the antiproliferative effects [3] was “no antiproliferative effects” and the “degradative effect on CDK12/13” value [4] was “no degradative effect”.

For `N#Cc1ccc(N[C@H]2CC[C@H](N(C(=O)NCc3ccccc3)c3ccc(N4CCN(C(=O)CNc5ccc6c(c5)C(=O)N(C5CCC(=O)NC5=O)C6=O)CC4)cc3)CC2)nc1` (stereo partly drawn) [compound 3], the “Protein Degradation (%DMSO control, 0.3 μM) CDK13” value [5] is listed as 84%, the “Protein Degradation (%DMSO control, 0.3 μM) CDK12” value [6] is listed as 75% and the clearance [7] is listed as “high”. The oral bioavailability [7] was “not orally bioavailable; also recorded: nondetectable”.
